Measurements taken from patent US11046753B2, “Antibody composition and buffer system therefor” (INNOVA BIOSCIENCES LTD, priority 2013, dated 2021).
Entries after “also recorded” stand apart in the source; their conditions may differ.

Legend:
[1] = Carbodiimide (EDC)-mediated conjugation of goat anti-rabbit IgG to carboxylated gold nanoparticles in presence of additive, read by lateral flow assay; details: pH 5
Procedure: Molecules were tested initially at pH 5 in EDC-mediated reactions with carboxylated gold particles (InnovaCoat GOLD, Innova Biosciences). Potentially interesting molecules from this screening exercise were further evaluated in NHS ester reactions, isothiocyanate reactions and thiolation reactions involving iminothiolane. All of these reactions are widely used in the antibody conjugation field and all would be expected to suffer from interference in the presence of glycine.
Lateral flow test strips (4 mm wide) were prepared from nitrocellulose membrane (Millipore Hi Flow plus 90) striped with goat anti-rabbit IgG (test line) and biotin-BSA (control line). Strips were housed in plastic cartridges and samples of gold conjugate (80 ul) were added to the sample pad. Cartridges were allowed to stand for 30 min and then read using a ESE-Quant GOLD reader—QIAGEN. Each sample was spiked with a fixed amount of streptavidin-gold (Innova biosciences—Product code: 250-0200), which binds to the control line, to check that each test strip had run correctly and that test line data was valid.
10 μg of goat anti-rabbit IgG (GAR) was used per ml of coated 40 nm nanoparticles with carboxyl functionality (InnovaCoat GOLD, Innova Biosciences) at […] in the presence of additives at 50 mM final concentration. Typically reactions were set up with the following additions: 40 μl of 40 nm InnovaCoat (carboxylated) gold nanopartcles, were incubated 5 minutes with 4 μl 0.1 mg/ml GAR, 20 μl water, and 80 μl of 100 mM MES buffer containing 100 mM of additive, pH 5.0. Next, 16 μl of 1 mM EDC was added and after 10 min incubation at 22° C., 20 μl of 10×TBS/1% Tween20 and 20 μl of water was added to give 2 OD conjugate.
Gold conjugates were mixed when required with rabbit IgG ((final concentration 50 ng/ml) at 22° C. Conjugates were 0.2 OD final concentration (i.e. 1/10 dilution from stock conjugates). Samples were run in triplicate on lateral flow test strips as described in Example 1.

[2] = Lightning-Link fluorescein conjugation of goat anti-rabbit IgG in presence of additive, fluorescence assay; details: 50 mM additive
Procedure: Black 96-well plates (Greiner Bio-One (code 655077)) were incubated with 50 ul rabbit IgG (1 ug/well) overnight at 4° C. The plates were blocked with TBS/0.1% BSA for 1 hour at room temperature and washed five times with TBS (wash buffer). Fluorescent antibody conjugates were serially diluted in TBS/0.1% BSA and 50 ul aliquots were added to wells in triplicate. After incubation at room temperature for 1 hour, the plate was washed five times and fluorescence emission was read in using a Tecan Infinite M200 plate reader with i-Control 1.4 software with the appropriate excitation/emission settings (fluorescein, 490 nm/535 nm; phycoeythrin, 535 nm/575 nm. Fluorescence data was plotted as a function of conjugate dilution. To compare results for additives tested in different experiments the data were transformed into a percentage of a control value (i.e. the signal for conjugate prepared in the absence of any test additive).
Reactions were carried out according to the manufacturer's standard protocol except that the additives were included at up to 50 mM concentration in conjugation reactions of Goat-anti-rabbit IgG using fluorescein Lightning-Link kit (product code 707-0010, Innova Biosciences, UK). Conjugates were tested according to the protocol described in Example 2.

[3] = Isothiocyanate (FITC) conjugation of rabbit IgG in presence of additive, dye to protein ratio; details: 50 mM additive, CHES pH 9.0
Procedure: Conjugates were desalted on PD10 columns (GE Healthcare) in TBS buffer and the absorbance values of the eluted solutions were determined at 280 nm and 495 nm. The ratio of moles dye to moles of protein for antibody dye conjugates in the presence of various additives is shown in FIG. 3.

[4] = NHS ester (fluorescein) conjugation of rabbit IgG in presence of additive, dye to protein ratio; details: 50 mM additive, sodium phosphate pH 8.0
Procedure: Conjugates were desalted on PD10 columns equilibrated in TBS buffer and absorbance values of the eluted solutions were determined at 280 nm and 495 nm. The ratio of moles dye to moles of protein for antibody dye conjugates in the presence of various additives is shown in FIG. 4.

[5] = Effect of additives on the thiolation reagent 2-iminothiolane (thiol release, DTNB, A405); details: 50 mM additive, pH 8.0, 30 minutes
Procedure: 20 μl of 2 mM 2-iminothiolane was added to each well and mixed quickly and the absorbance values were read at 405 nm every minute for 30 minutes using a Tecan Infinite M200 plate reader with i-Control 1.4 software. […] In control reaction, there is a steady linear increase in absorbance as the reagent is hydrolysed by water. […] The rising baseline can be attributed to the known sensitivity of 2-iminothiolane to hydrolysis at alkaline pH values.

**Q.** What does the source list for Glycine?
**A.** % of Signal [1]: 94%; interference in carbodiimide-mediated antibody-gold nanoparticle conjugation reaction [1]: no interference; also recorded: do not interfere; also recorded: does not; interference in Lightning-Link fluorescein conjugation reaction [2]: significant interference; ratio of moles dye to moles of protein versus control, FITC [3]: significant interference; ratio of moles dye to moles of protein versus control, fluorescein NHS ester [4]: substantial interference; release of thiols from 2-iminothiolane versus control [5]: rapid hydrolysis and ring opening; also recorded: reacts rapidly
